The text below walks through data of patent publication US10501460B2, “Heterocyclic compounds and uses thereof” (Plexxikon Inc., priority 2013, dated 2019).

Test [1] has as its system MV-4-11. In words: Oncology cell growth assay MV-4-11 (CellTiter Glo, 72 hours). The format is cell-based. The conditions noted are these: Homo sapiens, MV4-11, 72 h; MV-4-11 cell growth inhibitory activity, 3d. Put shortly: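 Growth read by CellTiter Glo luminescence after 72 h compound exposure of MV-4-11 AML cells (MLL-AF4), using 8-point 1:3 series to 10 μM final in 0.2% DMSO. Data normalized to DMSO wells, four-parameter fit yields pIC50.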
For orientation: ATP-based viability assays read luminescence as a measure of living cells.

Test [2] relates to bromodomain. Nature of the test: Bromodomain cell assays of Example 40 (at least one of them). It is filed as cell-based. To be noted: in at least one of the bromodomain cell assays described in Example 40. Put shortly: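 Growth inhibition: 3000 MV-4-11, MOLM-13, MM.1S or neuroblastoma cells/well got an 8-point 1:3 series from 10 μM top (0.2% DMSO) for 72 h, then CellTiter-Glo luminescence. Myc reporter: MV-4-11 with E-box firefly luciferase, 24 h exposure, One-Glo luminescence plus CellTiter-Fluo cell count. pIC50 from four-parameter fit.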

In the case of `Cc1ccc(S(=O)(=O)n2ccc3ncc(-c4c(C)noc4C)cc32)s1` [P-0062, 3,5-dimethyl-4-[1-[(5-methyl-2-thienyl)sulfonyl]pyrrolo[3,2-b]pyridin-6-yl]isoxazole], the values for the half-maximal inhibitory concentration (IC50) in test [1] and in test [2] were 1 to 10 µM and < 10 µM, respectively.

As to `C=CCn1cc(-c2cn(S(=O)(=O)CC3CC3)c3cc(-c4c(C)noc4C)cnc23)cn1` [P-0140, 4-[3-(1-allylpyrazol-4-yl)-1-(cyclopropylmethylsulfonyl)pyrrolo[3,2-b]pyridin-6-yl]-3,5-dimethyl-isoxazole], the IC50 – broadly, the concentration needed to halve the response being measured – was ≤ 1 µM in test [1] and < 10 µM in test [2].

For `Cc1noc(C)c1-c1cnc2c(-c3cnc(C4CC4)nc3)cn(S(=O)(=O)C3CCCC3)c2c1` [P-0103, 4-[1-cyclopentylsulfonyl-3-(2-cyclopropylpyrimidin-5-yl)pyrrolo[3,2-b]pyridin-6-yl]-3,5-dimethyl-isoxazole], the half-inhibitory concentration (IC50) in test [1] is 1 to 10 µM; in test [2] it was < 10 µM.

As to `CC(=O)N1CCC(Cc2cn(C)c3ncc(-c4c(C)noc4C)cc23)CC1` [P-0120, 1-[4-[[5-(3,5-dimethylisoxazol-4-yl)-1-methyl-pyrrolo[2,3-b]pyridin-3-yl]methyl]-1-piperidyl]ethanone], the IC50 in test [1] is 1 to 10 µM; in test [2], < 10 µM.

Turning to `[2H]C([2H])(C1CCC(F)(F)CC1)n1cc(-c2cnn(C(F)F)c2)c2ncc(-c3c(C)noc3C)cc21` [P-0219, 4-[1-[dideuterio-(4,4-difluorocyclohexyl)methyl]-3-[1-(difluoromethyl)pyrazol-4-yl]pyrrolo[3,2-b]pyridin-6-yl]-3,5-dimethyl-isoxazole], the figures for the half-maximal inhibitory concentration (IC50) in test [1] and in test [2] were ≤ 1 µM and < 10 µM, respectively.

With `Cc1noc(C)c1-c1cnc2c(-c3cnn(C4CCOC4)c3)cn(S(=O)(=O)c3ccccc3)c2c1` (stereo not shown) [P-0148, 4-[1-(benzenesulfonyl)-3-(1-tetrahydrofuran-3-ylpyrazol-4-yl)pyrrolo[3,2-b]pyridin-6-yl]-3,5-dimethyl-isoxazole], the figures for the IC50 in test [1] and in test [2] were ≤ 1 µM and < 10 µM, respectively.

Regarding `CCNC(=O)N1CCC(Cc2cn(C)c3ncc(-c4c(C)noc4C)cc23)CC1` [P-0117, 4-[[5-(3,5-dimethylisoxazol-4-yl)-1-methyl-pyrrolo[2,3-b]pyridin-3-yl]methyl]-N-ethyl-piperidine-1-carboxamide], the IC50 in test [1] is ≤ 1 µM; in test [2], < 10 µM.

Turning to `COC(c1c[nH]c2ncc(-c3c(C)noc3C)cc12)C1CCC(F)(F)CC1` (stereo not shown) [P-0073, 4-[3-[(4,4-difluorocyclohexyl)-methoxy-methyl]-1H-pyrrolo[2,3-b]pyridin-5-yl]-3,5-dimethyl-isoxazole], the half-inhibitory concentration (IC50) in test [1] was ≤ 1 µM; in test [2], < 10 µM.

On to `Cc1noc(C)c1-c1cnc2[nH]cc(C(c3ccc(F)cc3)(C3CC3)C3CC3)c2c1` [P-0085, 4-[3-[dicyclopropyl-(4-fluorophenyl)methyl]-1H-pyrrolo[2,3-b]pyridin-5-yl]-3,5-dimethyl-isoxazole], for which the IC50 in test [1] was 1 to 10 µM; in test [2] it was < 10 µM.

As to `CCOC(=O)C(c1ccccc1)n1cc(-c2cnn(C)c2)c2ncc(-c3c(C)noc3C)cc21` (stereo not shown) [P-0186, ethyl 2-[6-(3,5-dimethylisoxazol-4-yl)-3-(1-methylpyrazol-4-yl)pyrrolo[3,2-b]pyridin-1-yl]-2-phenyl-acetate], the IC50 in test [1] was ≤ 1 µM; in test [2], < 10 µM.

Take `CCCS(=O)(=O)n1cc(-c2cnn(C)c2)c2ncc(-c3c(C)noc3C)cc21` [P-0111, 3,5-dimethyl-4-[3-(1-methylpyrazol-4-yl)-1-propylsulfonyl-pyrrolo [3,2-b]pyridin-6-yl] isoxazole]: the IC50 in test [1] was ≤ 1 µM; in test [2], < 10 µM.

For `Cc1noc(C)c1-c1cnc2c(-c3cnn(C)c3)cn(S(=O)(=O)c3ccc(F)cc3)c2c1` [P-0123, 4-[1-(4-fluorophenyl)sulfonyl-3-(1-methylpyrazol-4-yl)pyrrolo[3,2-b]pyridin-6-yl]-3,5-dimethyl-isoxazole], the concentration for half-maximal inhibition (IC50) is ≤ 1 µM in test [1] and < 10 µM in test [2].

With `Cc1noc(C)c1-c1cnc2c(-c3cnn(C(F)F)c3)cn(Cc3ccccc3F)c2c1` [P-0176, 4-[3-[1-(difluoromethyl)pyrazol-4-yl]-1-[(2-fluorophenyl)methyl]pyrrolo[3,2-b]pyridin-6-yl]-3,5-dimethyl-isoxazole], the values for the IC50 in test [1] and in test [2] were ≤ 1 µM and < 10 µM, respectively.

On to `COc1ncc(F)cc1Cc1c[nH]c2ncc(-c3c(C)noc3C)cc12` [P-0028, 4-[3-[(5-fluoro-2-methoxy-3-pyridyl)methyl]-1H-pyrrolo[2,3-b]pyridin-5-yl]-3,5-dimethyl-isoxazole], for which the IC50 was ≤ 1 µM in test [1] and < 10 µM in test [2].

For `COCCn1cc(-c2cn(S(=O)(=O)C3CCCC3)c3cc(-c4c(C)noc4C)cnc23)cn1` [P-0151, 4-[1-cyclopentylsulfonyl-3-[1-(2-methoxyethyl)pyrazol-4-yl]pyrrolo[3,2-b]pyridin-6-yl]-3,5-dimethyl-isoxazole], the IC50 was ≤ 1 µM in test [1] and < 10 µM in test [2].

Regarding `Cc1noc(C)c1-c1cnc2c(c1)c(CC1CCN(C(=O)c3ccccc3)CC1)cn2C` [P-0115, [4-[[5-(3,5-dimethylisoxazol-4-yl)-1-methyl-pyrrolo[2,3-b]pyridin-3-yl]methyl]-1-piperidyl]-phenyl-methanone], the half-inhibitory concentration (IC50) in test [1] was ≤ 1 µM; in test [2] it was < 10 µM.

`Cc1noc(C)c1-c1cnc2c(-c3cnn(C)c3)cn(Cc3ccccc3Cl)c2c1` [P-0193, 4-[1-[(2-chlorophenyl)methyl]-3-(1-methylpyrazol-4-yl)pyrrolo[3,2-b]pyridin-6-yl]-3,5-dimethyl-isoxazole]: the figures for the 50% inhibitory concentration (IC50) in test [1] and in test [2] were ≤ 1 µM and < 10 µM, respectively.

As for `CCC(c1cn(C)c2ncc(-c3c(C)noc3C)cc12)C1CCC(F)(F)CC1` (stereo not shown) [P-0118, 4-[3-[1-(4,4-difluorocyclohexyl)propyl]-1-methyl-pyrrolo[2,3-b]pyridin-5-yl]-3,5-dimethyl-isoxazole], the 50% inhibitory concentration (IC50) in test [1] is ≤ 1 µM; in test [2] it was < 10 µM.

As for `CCn1cc(-c2cn(S(=O)(=O)c3ccccc3F)c3cc(-c4c(C)noc4C)cnc23)cn1` [P-0125, 4-[3-(1-ethylpyrazol-4-yl)-1-(2-fluorophenyl)sulfonyl-pyrrolo[3,2-b]pyridin-6-yl]-3,5-dimethyl-isoxazole], the results for the 50% inhibitory concentration (IC50) in test [1] and in test [2] were ≤ 1 µM and < 10 µM, respectively.

Regarding `C=CCn1cc(-c2cn(S(=O)(=O)C(C)CC)c3cc(-c4c(C)noc4C)cnc23)cn1` (stereo not shown) [P-0138, 4-[3-(1-allylpyrazol-4-yl)-1-sec-butylsulfonyl-pyrrolo[3,2-b]pyridin-6-yl]-3,5-dimethyl-isoxazole], the IC50 in test [1] is ≤ 1 µM; in test [2], < 10 µM.

Take `Cc1noc(C)c1-c1cnc2ccn(S(=O)(=O)c3ccccc3)c2c1` [P-0038, 4-[1-(benzenesulfonyl)pyrrolo [3,2-b]pyridin-6-yl]-3,5-dimethyl-isoxazole]: the figures for the IC50 in test [1] and in test [2] were ≤ 1 µM and < 10 µM, respectively.

`Cc1noc(C)c1-c1cnc2c(-c3cnn(C4CCOC4)c3)cn(C(C)c3ccccc3)c2c1` (stereo not shown) [P-0204, 3,5-dimethyl-4-[1-(1-phenylethyl)-3-(1-tetrahydrofuran-3-ylpyrazol-4-yl)pyrrolo[3,2-b]pyridin-6-yl]isoxazole]: the half-maximal inhibitory concentration (IC50) in test [1] is ≤ 1 µM; in test [2], < 10 µM.

As for `Cc1noc(C)c1-c1cnc2[nH]cc(C(O)c3ccccc3Cl)c2c1` (stereo not shown) [P-0019, (2-chlorophenyl)-[5-(3,5-dimethylisoxazol-4-yl)-1H-pyrrolo[2,3-b]pyridin-3-yl]methanol], the IC50 in test [1] was ≤ 1 µM; in test [2], < 10 µM.

`Cc1noc(C)c1-c1cnc2c(-c3cnn(C)c3)cn(C(CC#N)C3CCCC3)c2c1` (stereo not shown) [P-0197, 3-cyclopentyl-3-[6-(3,5-dimethylisoxazol-4-yl)-3-(1-methylpyrazol-4-yl)pyrrolo[3,2-b]pyridin-1-yl]propanenitrile]: the IC50 in test [1] was ≤ 1 µM; in test [2], < 10 µM.

Take `Cc1noc(C)c1-c1cnc2c(-c3cnn(C(F)F)c3)cn(S(=O)(=O)c3ccccc3)c2c1` [P-0131, 4-[1-(benzenesulfonyl)-3-[1-(difluoromethyl)pyrazol-4-yl]pyrrolo[3,2-b]pyridin-6-yl]-3,5-dimethyl-isoxazole]: the IC50 in test [1] is ≤ 1 µM; in test [2], < 10 µM.

Regarding `Cc1noc(C)c1-c1cnc2[nH]cc(CC3CCS(=O)(=O)CC3)c2c1` [P-0098, 4-[[5-(3,5-dimethylisoxazol-4-yl)-1H-pyrrolo[2,3-b]pyridin-3-yl]methyl]thiane 1,1-dioxide], the IC50 in test [1] was 1 to 10 µM; in test [2], < 10 µM.

`CCCS(=O)(=O)n1cc(-c2cnn(C3CCOC3)c2)c2ncc(-c3c(C)noc3C)cc21` (stereo not shown) [P-0154, 3,5-dimethyl-4-[1-propylsulfonyl-3-(1-tetrahydrofuran-3-ylpyrazol-4-yl)pyrrolo [3,2-b]pyridin-6-yl] isoxazole]: the half-inhibitory concentration (IC50) is ≤ 1 µM in test [1] and < 10 µM in test [2].

Regarding `CCc1[nH]c2ncc(-c3c(C)noc3C)cc2c1Cc1ccccc1Cl` [P-0049, 4-[3-[(2-chlorophenyl)methyl]-2-ethyl-1H-pyrrolo[2,3-b]pyridin-5-yl]-3,5-dimethyl-isoxazole], the values for the IC50 in test [1] and in test [2] were 1 to 10 µM and < 10 µM, respectively.

As to `Cc1noc(C)c1-c1cnc2c(-c3cnn(C)c3)cn(C(CO)c3ccccc3)c2c1` (stereo not shown) [P-0192, 2-[6-(3,5-dimethylisoxazol-4-yl)-3-(1-methylpyrazol-4-yl)pyrrolo[3,2-b]pyridin-1-yl]-2-phenyl-ethanol], the IC50 in test [1] is ≤ 1 µM; in test [2], < 10 µM.
